Experimental data from patent publication US7368471B2, “Substituted indole acid derivatives as inhibitors of plasminogen activator inhibitor-1 (PAI-1)” (Wyeth, priority 2001, dated 2008).
pIC50: −log10 of the molar value. Where two headings read alike, the source gives them in different places.

Assays:
human PAI-1 = human PAI-1 (Homo sapiens, UniProt P05121); test: Antibody Assay for Determining IC50 of Inhibition of PAI-1 (active PAI-1 bound to tPA-coated plate, 33B8 antibody); type: binding
Method: Assay for Determining IC50 of Inhibition of PAI-1
This assay is based upon the non-SDS dissociable interaction between tPA and active PAI-1. Assay plates are initially coated with human tPA (10 μg/ml). Test compounds are dissolved in DMSO at 10 mM, then diluted with physiologic buffer (pH 7.5) to a final concentration of 1-50 μM. Test compounds are incubated with human PAI-1 (50 ng/ml) for 15 minutes at room temperature. The tPA-coated plate is washed with a solution of 0.05% Tween 20 and 0.1% BSA, then the plate is blocked with a solution of 3% BSA. […] The plate is again washed, and a solution of goat anti-mouse IgG-alkaline phosphatase conjugate is added at a 1:50,000 dilution in goat serum. The plate is incubated 30 minutes at room temperature, washed, and a solution of alkaline phosphatase substrate is added. The plate is incubated 45 minutes at room temperature, and color development is determined at OD405nm. […] Results are analyzed using a logarithmic best-fit equation. The assay sensitivity is 5 ng/ml of human PAI-1 as determined from a standard curve ranging from 0-100 ng/ml.

[1] = footnote a: determined by the Antibody Assay, read-out: IC50

human PAI-1, sequence (P05121 24-402): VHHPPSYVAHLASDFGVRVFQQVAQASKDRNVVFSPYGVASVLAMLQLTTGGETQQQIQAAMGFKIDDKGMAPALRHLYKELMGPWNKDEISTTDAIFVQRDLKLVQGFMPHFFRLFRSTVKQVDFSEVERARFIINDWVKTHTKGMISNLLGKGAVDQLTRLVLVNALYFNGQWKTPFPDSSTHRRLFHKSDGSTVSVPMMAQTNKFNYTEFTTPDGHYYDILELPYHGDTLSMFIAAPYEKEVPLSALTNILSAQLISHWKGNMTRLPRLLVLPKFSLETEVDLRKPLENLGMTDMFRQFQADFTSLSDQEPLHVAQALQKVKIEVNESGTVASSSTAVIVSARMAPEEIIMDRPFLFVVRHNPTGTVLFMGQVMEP

pIC50 (human PAI-1; [1]) | melting point [°C] | SMILES | pIC50 (human PAI-1)
5.00 | 111 to 112 | CC(C)(C)c1ccc(Cn2cc(C(=O)C(=O)O)c3cc(-c4ccc(C(C)(C)C)cc4)ccc32)cc1 [Example 36, [1-(4-tert-Butylbenzyl)-5-(4-tert-butylphenyl)-1H-indol-3-yl](oxo)acetic acid] | –
4.58 | 280 to 282 | O=C([O-])C(=O)c1c(CO)n(Cc2ccccc2)c2ccc(-c3ccc(OC(F)(F)F)cc3)cc12.[K+] [Example 44, {1-Benzyl-2-(hydroxymethyl)-5-[4-(trifluoromethoxy)phenyl]-1H-indol-3-yl}(oxo)acetic acid, potassium salt] | –
4.98 | 149 | CCCCn1cc(C(=O)C(=O)O)c2cc(-c3ccc(C(F)(F)F)cc3)ccc21 [Example 33, {1-Butyl-5-[4-(trifluoromethyl)phenyl]-1H-indol-3-yl}(oxo)acetic acid] | –
4.88 | – | O=C(O)C(=O)c1cn(CC2CCCCC2)c2ccc(-c3cccc(Cl)c3)cc12 [Example 48, [5-(3-chlorophenyl)-1-(cyclohexylmethyl)-1H-indol-3-yl](oxo)acetic acid] | –
4.34 | 248 to 249.5 | Cc1ccc(Cn2c(CO)c(C(=O)C(=O)[O-])c3cc(-c4ccc(OC(F)(F)F)cc4)ccc32)cc1.[K+] [Example 42, {2-(Hydroxymethyl)-1-(4-methylbenzyl)-5-[4-(trifluoromethoxy)phenyl]-1H-indol-3-yl}(oxo)acetic acid, potassium salt] | –
– | – | O=C(O)C(=O)c1cn(Cc2ccccc2)c2cc(-c3ccc(OC(F)(F)F)cc3)ccc12 [Example 5, {1-Benzyl-6-[4-(trifluoromethoxy)phenyl]-1H-indol-3-yl}(oxo)acetic acid] | 4.76
4.67 | 97 to 98 | Cc1ccccc1-c1ccc2c(c1)c(C(=O)C(=O)O)cn2Cc1ccc(C(C)(C)C)cc1 [Example 39, [1-(4-tert-Butylbenzyl)-5-(2-methylphenyl)-1H-indol-3-yl](oxo)acetic acid] | –
4.94 | 206 to 207 | O=C(O)C(=O)c1cn(Cc2ccccc2)c2ccc(-c3cc(C(F)(F)F)cc(C(F)(F)F)c3)cc12 [Example 16, {1-Benzyl-5-[3,5-bis(trifluoromethyl)phenyl]-1H-indol-3-yl}(oxo)acetic acid] | –
4.76 | 85 to 86 | CC(=O)OCc1c(C(=O)C(=O)O)c2cc(-c3ccc(OC(F)(F)F)cc3)ccc2n1Cc1ccccc1 [Example 43, {2-[(Acetyloxy)methyl]-1-benzyl-5-[4-(trifluoromethoxy)phenyl]-1H-indol-3-yl}(oxo)acetic acid] | –
4.79 | 138 to 139 | CC(C)(C)c1ccc(Cn2cc(C(=O)C(=O)O)c3cc(-c4cccc(Cl)c4)ccc32)cc1 [Example 37, [1-(4-tert-Butylbenzyl)-5-(3-chlorophenyl)-1H-indol-3-yl](oxo)acetic acid] | –
4.46 | 165 to 166 | O=C(O)C(=O)c1cn(Cc2ccc(F)cc2)c2ccc(-c3ccccc3)cc12 [Example 28, [1-(4-Fluorobenzyl)-5-phenyl-1H-indol-3-yl](oxo)acetic acid] | –
4.70 | 186 to 188 | O=C(O)C(=O)c1cn(Cc2ccccc2)c2cc(-c3cccc(Cl)c3)ccc12 [Example 21, [1-Benzyl-6-(3-chlorophenyl)-1H-indol-3-yl](oxo)acetic acid] | –

SMILES | pIC50 (human PAI-1; [1]) | melting point [°C] | pIC50 (human PAI-1)
O=C(O)C(=O)c1cn(Cc2ccccc2)c2ccc(-c3cccc(OC(F)(F)F)c3)cc12 [Example 22, {1-Benzyl-5-[3-(trifluoromethoxy)phenyl]-1H-indol-3-yl}(oxo)acetic acid] | 5.01 | – | –
O=C(O)C(=O)c1cn(Cc2ccccc2)c2c(-c3ccc(OC(F)(F)F)cc3)cccc12 [Example 17, {1-Benzyl-7-[4-(trifluoromethoxy)phenyl]-1H-indol-3-yl}(oxo)acetic acid] | 5.00 | – | –
